Data: patent US10596169B2, “Cancer treatment with combination of plinabulin and taxane” (BeyondSpring Inc., priority 2013, dated 2020)

What was measured:
NSCLC = conditions: wide type NSCLC patients (stage IIIb/IV, second line), docetaxel 75 mg/m^2; cited from earlier work
[1] = system: MV522 human non-small cell lung tumor xenograph model; test: Example 2: MV522 xenograft, NPI-2358 1, 4 or 24 h after docetaxel (TGI/TGD); format: in vivo, athymic nu/nu mice; conditions: for MDS day +/− SD: endpoint 1.0 cm^3
Protocol: In vivo evaluation of plinabulin in combination with docetaxel in the MV522 human non-small cell lung tumor xenograph model in athymic nu/nu mice: schedule of drug administration
The objective of the example was to evaluate the potential additive or synergistic effects of plinabulin (NPI-2358) in combination with docetaxel by administering NPI-2358 at various time points (1 h, 4 h, or 24 h) after docetaxel in the MV522 model. Significant endpoints for this experiment included mean tumor growth inhibition (TGI) or regression, tumor growth delay (TGD) in large tumor, weight loss, and mortality.
(§1) Female nude mice (Hsd: Athymic Nude-Foxn1^nu) between 5 and 6 weeks of age weighing approximately 20 grams were obtained from Harlan, Inc. (Madison, Wis.). Animals were injected subcutaneously (SC) with approximately 1×10^7 MV522 cells harvested from tissue culture (1:1 matrigel:media). When tumors grew to approximately 100 cubic millimeters (mm^3) in size, animals were pair-matched by tumor size into treatment and control groups. Animals were ear-tagged and followed individually throughout the experiment.
(§2) Initial doses were administered on Day 1 following pair-matching. The experiment was carried out as both a tumor growth inhibition (TGI) and tumor growth delay (TGD) study. For TGI, the endpoint was when the average tumor volume of Group 1 reached 1.2 cm^3. For TGD, the endpoint was reached when each individual animal's tumor volume reached 1.0 cm^3. A 10 mg/ml stock vial of docetaxel was diluted in 0.9% saline on each day of dosing and administered intravenously (IV).
Same as in Example 1. This arm of the study was ended on Day 80 or 53 at the sponsor's request. Long-term survivors (animals not reaching the tumor volume endpoint by the preset time period (LTS)) were assigned an IDS value of the last study day (Day 80) and included in these calculations.
For comparison of activity with standard agent(s), gross or net log10 cell-kill values were converted to an arbitrary activity rating below: […]

[2] = mouse, in vivo
Protocol: as §1, with “Wis.). MV522 is a conventional human NSC metastatic lung tumor cell line (U.S. Pat. No. 7,700,615 or 7,629,380).” for “Wis.).”, “culture.” for “culture (1:1 matrigel:media).”, “105” for “100”, “size (3 days following implantation),” for “size,”, “groups; each treatment group contained eight mice.” for “groups.”
Initial doses were administered on Day 1 following pair-matching. The experiment was carried out as a tumor growth inhibition (TGI) and tumor growth delay (TGD) study. Group 1 endpoint was when tumor volume reached 1.2 cm^3 (TGI) and the treated groups endpoint was when each individual animal's tumor volume reached 1.5 cm^3 (TGD). […] To serve as negative controls, NPI-2358 vehicle and docetaxel vehicle were injected IP on a 2×WKLY×3 schedule and IV on a Q2D×3 schedule, respectively. Docetaxel was administered by intravenous (IV) injection via tail vein at 15 mg/kg once every other day for three treatments (Q2D×3) or at 25 mg/kg on a Q7D×3 schedule (every 7 day for three treatment). Docetaxel and docetaxel vehicle were administered two hours prior to NPI-2358 vehicle and NPI-2358, respectively, in Groups 7-9 and 12-14. For Groups 10, 11, 15, and 16, NPI-2358 was given two hours prior to docetaxel.
Individual and group mean weights ±SD and percent weight change were recorded twice weekly until study completion beginning Day 1. Group weights on Day 42 and weight nadir values are reported.
Animals were observed twice weekly for general moribundity and daily for mortality.

[3] = Example 2: animal weight and drug toxicity in MV522 xenograft mice; format: in vivo, athymic nu/nu mice
Protocol: as §1, §2
Individual and group mean weights ±SD and percent weight change were recorded twice weekly until study completion beginning Day 1. Group weights through Day 24 or 53 and weight nadir values are reported.

[4] = G2: docetaxel 15 mg/kg IV + NPI-2358 vehicle 1 h after
[5] = G3: docetaxel 15 mg/kg IV + NPI-2358 vehicle 4 h after
[6] = G4: docetaxel 15 mg/kg IV + NPI-2358 vehicle 24 h after
[7] = G11: docetaxel 25 mg/kg IV + NPI-2358 vehicle 1 h after
[8] = G12: docetaxel 25 mg/kg IV + NPI-2358 vehicle 4 h after
[9] = G13: docetaxel 25 mg/kg IV + NPI-2358 vehicle 24 h after

## CC(=O)O[C@@]12CO[C@@H]1C[C@H](O)[C@@]1(C)C(=O)[C@H](O)C3=C(C)[C@@H](OC(=O)[C@H](O)[C@@H](NC(=O)OC(C)(C)C)c4ccccc4)C[C@@](O)([C@@H](OC(=O)c4ccccc4)[C@H]21)C3(C)C [Docetaxel, docetaxel]
NSCLC
  OS: 8.2 months
[1]; [4]
  % TGI: 79%
  Final tumor volume (Day 24) mean +/− SEM: 337 +/− 29
  Log10 cell kill: 0.6
  T-C (tumor growth delay): 14
  MDS day +/− SD: 38 ± 3 days
[1]; [5]
  % TGI: 81%
  Final tumor volume (Day 24) mean +/− SEM: 313 +/− 23
  Log10 cell kill: 0.7
  T-C (tumor growth delay): 18
  MDS day +/− SD: 42 ± 6 days
[1]; [6]
  % TGI: 80%
  Final tumor volume (Day 24) mean +/− SEM: 325 +/− 41
  Log10 cell kill: 0.6
  T-C (tumor growth delay): 16
  MDS day +/− SD: 40 ± 7 days
[1]; [7]
  # of animals with tumor regression (% TR (#)): 7
  % TGI: 104%
  % TR: 42%
  Final tumor volume (Day 24) mean +/− SEM: 69 +/− 10
  Log10 cell kill: 1.6
  T-C (tumor growth delay): 39
  MDS day +/− SD: 63 ± 10 days
[1]; [8]
  # of animals with tumor regression (% TR (#)): 7
  % TGI: 104%
  % TR: 45%
  Final tumor volume (Day 24) mean +/− SEM: 65 +/− 9
  Log10 cell kill: 1.3
  T-C (tumor growth delay): 32
  MDS day +/− SD: 56 ± 4 days
[1]; [9]
  # of animals with tumor regression (% TR (#)): 7
  % TGI: 103%
  % TR: 55%
  Final tumor volume (Day 24) mean +/− SEM: 72 +/− 14
  Log10 cell kill: 1.4
  T-C (tumor growth delay): 35
  MDS day +/− SD: 59 ± 10 days
[2]
  Animal weight loss: significant animal weight loss was observed
[3]; [4]
  Final weight - Day 24 % change: +13%
  Final weight - Day 24 AVG +/− SD: 22 ± 1 g
  Weight nadir % change: −14%
  Weight nadir day: 10
[3]; [5]
  Final weight - Day 24 % change: +12%
  Final weight - Day 24 AVG +/− SD: 23 ± 2 g
  Weight nadir % change: −10%
  Weight nadir day: 10
[3]; [6]
  Final weight - Day 24 % change: +17%
  Final weight - Day 24 AVG +/− SD: 23 ± 2 g
  Weight nadir % change: −10%
  Weight nadir day: 10
[3]; [7]
  Final weight - Day 24 % change: −10%
  Final weight - Day 24 AVG +/− SD: 18 ± 2 g
  Weight nadir % change: −13%
  Weight nadir day: 17
[3]; [8]
  Final weight - Day 24 % change: −11%
  Final weight - Day 24 AVG +/− SD: 17 ± 2 g
  Weight nadir % change: −14%
  Weight nadir day: 10
[3]; [9]
  Final weight - Day 24 % change: −12%
  Final weight - Day 24 AVG +/− SD: 17 ± 3 g
  Weight nadir % change: −20%
  Weight nadir day: 17
